From ChEMBL document CHEMBL1201862, “PubChem BioAssay data set” (2004)
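Dose response: 5 concentrations. Exposure: 48 h. Format: 96-well plates. Endpoint: linear interpolation; highest concentration if not reached. Here, GI50 denotes the concentration required for 50% inhibition of growth.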 Calls of active or inactive are those of the source. No stated cut-off is given here; in the data, active = GI50 up to about 1.1 µM and inactive = higher.

Columns and labels:
Assay in all cases: DTP human tumour cell line panel, 48 h
OVCAR-3 = system: OVCAR-3
SF-539 = system: SF-539
OVCAR-5 = system: OVCAR-5
NCI-H522 = system: NCI-H522
LXFL 529 = system: LXFL 529
OVCAR-8 = system: OVCAR-8
M19-MEL = system: M19-MEL
SF-295 = system: SF-295
SK-MEL-28 = system: SK-MEL-28
UACC-62 = system: UACC-62
KM12 = system: KM12
M14 = system: M14
SK-MEL-5 = system: SK-MEL-5
SK-OV-3 = system: SK-OV-3
XF498 = system: XF498
LOX IMVI = system: LOX IMVI
EKVX = system: EKVX
RXF 631 = system: RXF 631
SW-620 = system: SW-620
HL-60 = system: HL-60
RXF 393 = system: RXF 393
UACC-257 = system: UACC-257
DLD-1 = system: DLD-1
ACHN = system: ACHN
IGROV-1 = system: IGROV-1
OVCAR-4 = system: OVCAR-4
RPMI-8226 = system: RPMI-8226
NCI-H23 = system: NCI-H23
SNB-78 = system: SNB-78
HOP-62 = system: HOP-62
K562 = system: K562
SN12C = system: SN12C
TK-10 = system: TK-10
U-251 = system: U-251
Malme-3M = system: Malme-3M
SNB-19 = system: SNB-19
UO-31 = system: UO-31
CCRF-CEM = system: CCRF-CEM
MOLT-4 = system: MOLT-4
786-0 = system: 786-0
HCT-15 = system: HCT-15
SR = system: SR
HT-29 = system: HT-29
HOP-92 = system: HOP-92
SK-MEL-2 = system: SK-MEL-2
KM-20L2 = system: KM-20L2
DMS-114 = system: DMS-114
A498 = system: A498
COLO 205 = system: COLO 205
SNB-75 = system: SNB-75
DMS-273 = system: DMS-273
HCC 2998 = system: HCC 2998
HCT-116 = system: HCT-116
NCI-H460 = system: NCI-H460
A549 = system: A549
SF-268 = system: SF-268

With O=C(O)c1oc2cccc3c2c1CCC3 the GI50 (OVCAR-3) was > 100 µM (inactive), the GI50 (SF-539) was > 100 µM (inactive) and the GI50 (OVCAR-5) was > 100 µM (inactive). The GI50 (NCI-H522) was > 100 µM (inactive), the GI50 (LXFL 529) was > 100 µM (inactive) and the GI50 (OVCAR-8) was > 100 µM (inactive). The GI50 (M19-MEL) was > 100 µM (inactive), the GI50 (SF-295) was > 100 µM (inactive) and the GI50 (SK-MEL-28) was > 100 µM (inactive). The GI50 (UACC-62) was 41.7 µM (inactive), the GI50 (KM12) was > 100 µM (inactive) and the GI50 (M14) was > 100 µM (inactive). For the same compound, the GI50 (SK-MEL-5) was > 100 µM (inactive), the GI50 (SK-OV-3) was > 100 µM (inactive) and the GI50 (XF498) was > 100 µM (inactive). For the same compound, the GI50 (LOX IMVI) was > 100 µM (inactive), the GI50 (EKVX) was > 100 µM (inactive) and the GI50 (RXF 631) was > 100 µM (inactive). The GI50 (SW-620) was > 100 µM (inactive), the GI50 (HL-60) was > 100 µM (inactive) and the GI50 (RXF 393) was > 100 µM (inactive). The GI50 (UACC-257) was > 100 µM (inactive), the GI50 (DLD-1) was > 100 µM (inactive) and the GI50 (ACHN) was > 100 µM (inactive). For the same compound, the GI50 (IGROV-1) was > 100 µM (inactive), the GI50 (OVCAR-4) was > 100 µM (inactive) and the GI50 (RPMI-8226) was > 100 µM (inactive). For the same compound, the GI50 (NCI-H23) was > 100 µM (inactive), the GI50 (SNB-78) was > 100 µM (inactive) and the GI50 (HOP-62) was > 100 µM (inactive). For the same compound, the GI50 (K562) was > 100 µM (inactive), the GI50 (SN12C) was > 100 µM (inactive) and the GI50 (TK-10) was > 100 µM (inactive). The GI50 (U-251) was > 100 µM (inactive), the GI50 (Malme-3M) was > 100 µM (inactive) and the GI50 (SNB-19) was > 100 µM (inactive). The GI50 (UO-31) was 12.8 µM (inactive), the GI50 (CCRF-CEM) was > 100 µM (inactive) and the GI50 (MOLT-4) was > 100 µM (inactive). For the same compound, the GI50 (786-0) was > 100 µM (inactive), the GI50 (HCT-15) was > 100 µM and the GI50 (SR) was > 100 µM (inactive). For the same compound, the GI50 (HT-29) was > 100 µM (inactive), the GI50 (HOP-92) was > 100 µM (inactive) and the GI50 (SK-MEL-2) was > 100 µM (inactive). The GI50 (KM-20L2) was > 10 µM (inactive), the GI50 (DMS-114) was > 100 µM (inactive) and the GI50 (A498) was > 100 µM (inactive). For the same compound, the GI50 (COLO 205) was > 100 µM (inactive), the GI50 (SNB-75) was 99.3 µM (inactive) and the GI50 (DMS-273) was > 100 µM (inactive). The GI50 (HCC 2998) was > 100 µM (inactive), the GI50 (HCT-116) was > 100 µM (inactive) and the GI50 (NCI-H460) was > 100 µM (inactive). For the same compound, the GI50 (A549) was > 100 µM (inactive) and the GI50 (SF-268) was > 100 µM (inactive).
